In patent US5591758A, “Organic nitrates, processes for their preparation and their use in the treatment of cardiovascular diseases” (Laboratoires Hoechst, SA, priority 1991, dated 1997):
pIC50: −log10 of the molar value. Structures can show the parent of a compound that is named as a salt.

How the values were obtained:
anesthetised pigs = experiment: Haemodynamic effects on anesthetised pigs; type: in vivo, pigs ("German land" race)
Experimental: Haemodynamic effects of the compounds according to the invention on anesthetised pigs or dogs
Pigs are of "German land" race (20-26 kg) and are used after fasting overnight.
In the case of pigs, sedation, analgesia and anesthesia are induced by ketamine HCl (20 mg/kg i.m.), methonidate HCl (10 mg/kg i.m.), xylacine HCl (3 mg/kg i.m.) and sodium pentobarbitol (25-30 mg/kg as bolus i.v. or 0.16 mg/kg/min as i.v. perfusion).
The pigs or dogs are placed under artificial respiration in ambient air. Analysis of the blood gases (pO2, pCO2) is carried out at regular intervals and oxygen can be supplied via the respirator, if necessary.
The haemodynamic parameters recorded include the left ventricular pressure (LVP; Millar PC350 Tip catheter inserted via the carotid artery), systemic blood pressure (BPs, BPd; full catheter in a femoral artery), the end pressure of the left ventricular diastole (LVEDP), the ventricular contractility (LVPdp/dtmax) and the heart rate (HR).
The haemodynamic variables are recorded continuously for 1 to 3 hours, as a function of the period of action of the compound.
The effects of the compounds studied are shown as the absolute difference with respect to the base value (bv) measured before administration of the compounds and are shown in Table VII (a,b,c).
An antianginal activity is estimated by a fall in the BPs and the LVEDP (fall in venous return).

thoracic aorta = experiment: Vasorelaxant effect on isolated vessels (rat thoracic aorta rings without endothelium, precontracted with noradrenalin); design: species or system Wistar rats; conditions: for Emax: Rattus norvegicus, maximum inhibition of noradrenalin effect, 10^-8 to 10^-4 M substance, read-out: Maximum Relaxation; for pIC50: rat aorta, 10^-7 M noradrenalin contraction
Outline: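 Endothelium-denuded thoracic aorta rings from Wistar rats, held in Krebs-Ringer buffer (pH 7.4, 37 °C, 95% O2/5% CO2) under isometric tension and precontracted with 10^-7 M noradrenalin, received cumulative compound (10^-8 to 10^-4 M). Maximum relaxation given as percent; IC50 calculated when relaxation exceeded 50%.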

[1] = tested on: isolated pulmonary vessel; experiment: Relaxant activity on blood vessels isolated from guinea pigs (pulmonary artery); conditions: Cavia porcellus; guinea pig pulmonary artery, K+ depolarised, Ca2+ contraction; read-out: IC50 (relaxation of 50%)
Experimental: Determination of the relaxant activity of the compounds according to the invention on blood vessels isolated from guinea pigs.
The pulmonary artery of male guinea pigs (350-500 g) is isolated and cut into spiral tracts (1 mm wide, 15 mm long). […] After having removed the calcium from the tissues (Tyrode without calcium and 0.2 mM EDTA), the tracts are depolarised in the presence of a concentrated solution of K^+ ions (40 mM), which is produced by replacing the NaCl by equimolar amounts of KCl, and a contraction of long duration is then induced by Ca^2+ ions (0.5 mM).
The compounds studied are then introduced into the organ cell in increasing concentrations.
Each compound is tested on at least four vessel spiral tracts.

[2] = Stability in water (seen in optical rotation); type: physicochemical; conditions: water (c 0.6)

| Compound | BPs (min), period of action (anesthetised pigs; pigs, 10,0 mg/kg i.d.) | BPs, difference to base value (anesthetised pigs; pigs, 10,0 mg/kg i.d.) | LVRDP (min), period of action (anesthetised pigs; pigs, 10,0 mg/kg i.d.) | LVRDP, difference to base value (anesthetised pigs; pigs, 10,0 mg/kg i.d.) | Emax (thoracic aorta) | pIC50 (thoracic aorta) | pIC50 [1] | other results |
| --- | --- | --- | --- | --- | --- | --- | --- | --- |
| CC1(C)SC[C@@H](C(=O)N[C@H]2CO[C@H]3[C@@H]2OC[C@@H]3O[N+](=O)[O-])N1C=O [Compound 31, 5-[[(3-Formyl-2,2-dimethyl-4-L-thiazolidinyl)carbonyl]amino]-5-deoxy-2-O-nitro-1,4:3,6-dianhydro-L-iditol monohydrochloride] | > 60 min | -15 mmHg | > 60 min | -2,0 mmHg | 83% | 4.60 |  |  |
| O=C(N[C@H]1CO[C@H]2[C@@H]1OC[C@@H]2O[N+](=O)[O-])c1ccccc1SCc1ccccc1 [Compound 39] | > 90 min | -5 mmHg | > 90 min | -1,0 mmHg | 80% | 4.30 | 6.00 |  |
| CC(=O)NCSC[C@H](NC(=O)OC(C)(C)C)C(=O)N[C@H]1CO[C@H]2[C@@H]1OC[C@@H]2O[N+](=O)[O-] [Compound 33, S-[(Acetylamino)methyl]-N-[(t-butoxy)carbonyl]-L-cysteine amide of 5-amino-5-deoxy-2-O-nitro-1,4:3,6-dianhydro-L-iditol] | > 60 min | -12 mmHg | > 60 min | -3,0 mmHg | 50% | < 4.00 |  |  |
| O=C(CNC(=O)OCc1ccccc1)N[C@H]1CO[C@H]2[C@@H]1OC[C@@H]2O[N+](=O)[O-] [Compound 4, N-[(Benzyloxy)carbonyl]glycine amide of 5-amino-5-deoxy-2-O-nitro-1,4:3,6-dianhydro-L-iditol] |  |  |  |  | 75% | 4.70 | 5.22 | BPs (min), period of action (anesthetised pigs; pigs, 3,0 mg/kg i.d.): > 120 min; BPs, difference to base value (anesthetised pigs; pigs, 3,0 mg/kg i.d.): -28 mmHg; LVRDP (min), period of action (anesthetised pigs; pigs, 3,0 mg/kg i.d.): > 120 min; LVRDP, difference to base value (anesthetised pigs; pigs, 3,0 mg/kg i.d.): -2,0 mmHg |
| O=C(O[C@@H]1CO[C@H]2[C@@H]1OC[C@@H]2O[N+](=O)[O-])c1ccccc1SCc1ccccc1 [Compound 28, 5-O-[2-[(Phenylmethyl)thio]benzoyl]-2-O-nitro-1,4:3,6-dianhydro-D-glucitol] |  |  |  |  | 70% | 4.30 | 5.70 | BPs (min), period of action (anesthetised pigs; pigs, 3,0 mg/kg i.d.): > 180 min; BPs, difference to base value (anesthetised pigs; pigs, 3,0 mg/kg i.d.): -28 mmHg; LVRDP (min), period of action (anesthetised pigs; pigs, 3,0 mg/kg i.d.): > 180 min; LVRDP, difference to base value (anesthetised pigs; pigs, 3,0 mg/kg i.d.): -6,0 mmHg |
| CC(C)(C)OC(=O)NCC(=O)N[C@H]1CO[C@H]2[C@@H]1OC[C@@H]2O[N+](=O)[O-] [Compound 5, N-[(t-Butoxy)carbonyl]glycine amide of 5-amino-5-deoxy-2-O-nitro-1,4:3,6-dianhydro-L-iditol] |  |  |  |  | 70% | 4.60 | 4.85 | BPs (min), period of action (anesthetised pigs; pigs, 1,0 mg/kg i.d.): > 120 min; BPs, difference to base value (anesthetised pigs; pigs, 1,0 mg/kg i.d.): -24 mmHg; LVRDP (min), period of action (anesthetised pigs; pigs, 1,0 mg/kg i.d.): > 120 min; LVRDP, difference to base value (anesthetised pigs; pigs, 1,0 mg/kg i.d.): -4,0 mmHg |
| O=C(N[C@H]1CO[C@H]2[C@@H]1OC[C@@H]2O[N+](=O)[O-])[C@@H]1CSCN1 [Compound 30, 5-[[(4-L-Thiazolidinyl)carbonyl]amino]-5-deoxy-2-O-nitro-1,4:3,6-dianhydro-L-iditol monohydrochloride] |  |  |  |  | 100% | 5.00 | 4.49 | BPs (min), period of action (anesthetised pigs; pigs, 3,0 mg/kg i.d.): > 60 min; BPs, difference to base value (anesthetised pigs; pigs, 3,0 mg/kg i.d.): -40 mmHg; LVRDP (min), period of action (anesthetised pigs; pigs, 3,0 mg/kg i.d.): > 60 min; LVRDP, difference to base value (anesthetised pigs; pigs, 3,0 mg/kg i.d.): -2,0 mmHg |
| NCC(=O)N[C@H]1CO[C@H]2[C@@H]1OC[C@@H]2O[N+](=O)[O-] [Compound 6, Glycine amide of 5-amino-5-deoxy-2-O-nitro-1,4:3,6-dianhydro-L-iditol monohydrochloride] |  |  |  |  | 45% | < 4.00 | 4.52 | BPs (min), period of action (anesthetised pigs; pigs, 1,0 mg/kg i.d.): > 180 min; BPs, difference to base value (anesthetised pigs; pigs, 1,0 mg/kg i.d.): -31 mmHg; LVRDP (min), period of action (anesthetised pigs; pigs, 1,0 mg/kg i.d.): > 180 min; LVRDP, difference to base value (anesthetised pigs; pigs, 1,0 mg/kg i.d.): -4,0 mmHg |
| O=C(CNC(=O)c1ccccc1SCc1ccccc1)N[C@H]1CO[C@H]2[C@@H]1OC[C@@H]2O[N+](=O)[O-] [Compound 47, 5-[[[[2-[(Phenylmethyl)thio]benzoyl]amino]-1-oxoethyl]amino]-5-deoxy-2-O-nitro-1,4:3,6-dianhydro-L-iditol] | > 120 min | -10 mmHg | > 90 min | -1,0 mmHg |  |  | 5.70 |  |
| CC1(C)N[C@H](C(=O)N[C@H]2CO[C@H]3[C@@H]2OC[C@@H]3O[N+](=O)[O-])CS1 [Compound 32, 5-[[(2,2-Dimethyl-4-L-thiazolidinyl)carbonyl]amino]-5-deoxy-2-O-nitro-1,4:3,6-dianhydro-L-iditol monohydrochloride] |  |  |  |  | 100% | 4.82 |  | stability in water [2]: instability of the product in water; BPs (min), period of action (anesthetised pigs; pigs, 3,0 mg/kg i.d.): > 180 min; BPs, difference to base value (anesthetised pigs; pigs, 3,0 mg/kg i.d.): -30 mmHg; LVRDP (min), period of action (anesthetised pigs; pigs, 3,0 mg/kg i.d.): > 180 min; LVRDP, difference to base value (anesthetised pigs; pigs, 3,0 mg/kg i.d.): -4,0 mmHg |
| O=C(O[C@H]1CO[C@H]2[C@@H]1OC[C@H]2O[N+](=O)[O-])c1ccccc1SCc1ccccc1 [Compound 22, 2-O-[2-[(Phenylmethyl)thio]benzoyl]-5-O-nitro-1,4:3,6-dianhydro-D-glucitol] |  |  |  |  | 100% | 5.00 | 5.52 | BPs (min), period of action (anesthetised pigs; pigs, 10 mg/kg i.v.): 5 min; BPs, difference to base value (anesthetised pigs; pigs, 10 mg/kg i.v.): -73 mmHg; LVRDP (min), period of action (anesthetised pigs; pigs, 10 mg/kg i.v.): 5 min; LVRDP, difference to base value (anesthetised pigs; pigs, 10 mg/kg i.v.): -2,0 mmHg |
| CC1(C)SC[C@@H](C(=O)NCC(=O)N[C@H]2CO[C@H]3[C@@H]2OC[C@@H]3O[N+](=O)[O-])N1C=O [Compound 48, 5-[[2-[[(3-Formyl-2,2-dimethyl-4-L-thiazolidinyl)carbonyl]amino]-1-oxoethyl]amino]-5-deoxy-2-O-nitro-1,4:3,6-dianhydro-L-iditol] | > 180 min | -25 mmHg | > 180 min | -4,0 mmHg | 25% | < 4.00 | < 4.00 |  |
| CC(=O)NCSC[C@H](N)C(=O)N[C@H]1CO[C@H]2[C@@H]1OC[C@@H]2O[N+](=O)[O-] [Compound 34, S-[(Acetylamino)methyl]-L-cysteine amide of 5-amino-5-deoxy-2-O-nitro-1,4:3,6-dianhydro-L-iditol monohydrochloride] | > 180 min | -22 mmHg | > 180 min | -4,0 mmHg | 25% | < 4.00 |  |  |
| CC(=O)NCSC[C@H](NC(=O)OC(C)(C)C)C(=O)O[C@H]1CO[C@H]2[C@@H]1OC[C@H]2O[N+](=O)[O-] [Compound 20, S-[(Acetylamino)methyl]-N-[(t-butoxy)carbonyl]-L-cysteine ester of 5-O-nitro-1,4:3,6-dianhydro-D-glucitol] |  |  |  |  | 85% | 4.55 |  | BPs (min), period of action (anesthetised pigs; pigs, 10 mg/kg i.v.): 5 min; BPs, difference to base value (anesthetised pigs; pigs, 10 mg/kg i.v.): -20 mmHg; LVRDP (min), period of action (anesthetised pigs; pigs, 10 mg/kg i.v.): 5 min; LVRDP, difference to base value (anesthetised pigs; pigs, 10 mg/kg i.v.): -4,0 mmHg |
